The nature of series [1]: Stability of crystalline form suspended in organic solvent (XRPD). The series is classed as physicochemical. The following applies: methanol, ethanol, ethyl acetate, acetone, acetonitrile, tetrahydrofuran, 1,4-dioxane, n-hexane; 20° C. and 50° C., 24 h. How it is done:
After being added with methanol (4 mL), the glass vial was placed on a magnetic stirrer, and the mixture was stirred at 20° C. and 50° C., each for 24 h.
According to the above method, ethanol, ethyl acetate, acetone, acetonitrile, tetrahydrofuran, 1,4-dioxane and n-hexane were used as solvents to conduct parallel tests.

The nature of series [2]: Hygroscopicity by dynamic vapor sorption (DVS). Type of series: physicochemical. Here is the method:
Instrument: SMS DVS Advantage;
The DVS parameters are as follows:
Balancing: dm/dt=0.01%/min (shortest: 10 min, longest: 180 min)
drying: drying at 0% RH for 120 min
RH (%) test gradient: 10%
Range of RH (%) test gradient: 0%-90%-0%

A short description of series [3]: Stability of crystalline form at high temperature, high humidity and illumination (XRPD). Type of series: physicochemical. From the text:
The vials in which the samples were placed at high temperature and high humidity were sealed with aluminum foil, and small holes were provided in the aluminum foil to ensure that the samples were sufficiently contacted with atmospheric air. The vial in which the sample was placed under strong light was placed open without sealing with aluminum foil. The samples placed under different conditions were taken and tested for XRPD spectrum on day 5 and day 10.

Series [4] deals with AKT phosphorylation. Description: In vitro test of inhibition on AKT phosphorylation in IgM-stimulated Ramos cells (ELISA). Type of series: cell-based. The following applies: anti-human IgM stimulation. The text has this: 5.1 Purpose of experiment: to detect the protein kinase AKT phosphorylation in cells by enzyme-linked immunosorbent assay (ELISA), and evaluate the inhibition of the compound on the AKT phosphorylation by taking the half-inhibitory concentration (IC50) value of the compound as an index. […]
A general note: In an ELISA, binding on a coated surface is turned into a signal by an enzyme label.

One may read the IC50 as the concentration that gives 50% inhibition. A higher IC50 goes with weaker potency.

Counter-ions that a name gives are not always drawn.

For `Cn1c(=O)c(Nc2ccc(N3CCN(C4COC4)CC3)cn2)cc2c(F)c(-c3cc[nH]n3)ccc21` [5-fluoro-1-methyl-3-((5-(4-(oxetan-3-yl)piperazin-1-yl)pyridin-2-yl)amino)-6-(1H-pyrazol-3-yl)quinolin-2(1H)-one hydrochloride], the “XRPD spectrum after suspension in solvent” value in series [1] was “doesn't change”. In series [2] (25° C., RH 0%-90%-0%), the “ΔW (DVS weight gain)” value is listed as 1.371%. Also, the Hygroscopicity entry in series [2] (25±1° C. and 80±2% RH) is recorded as “less hygroscopic”. Also, the Crystalline form result is reported as “Form A crystal” in series [3] (Day 0 (initial), XRPD); “Form A crystal” in series [3] (High humidity (room temperature/relative humidity 92.5%, open), Day 5, XRPD); “Form A crystal” in series [3] (High humidity (room temperature/relative humidity 92.5%, open), Day 10, XRPD); “Form A crystal” in series [3] (High temperature (60° C., open), Day 5, XRPD); “Form A crystal” in series [3] (High temperature (60° C., open), Day 10, XRPD); “Form A crystal” in series [3] (Illumination (total illuminance of 1.2 × 10^6 Lux·hr/near UV energy of 200 w·hr/m^2, open), XRPD). In addition, the “Stability under high temperature, high humidity and illumination” value in series [3] (overall conclusion) is recorded as “good stability”.

`Cn1c(=O)c(Nc2ccc(N3CCN(C4COC4)CC3)cn2)cc2c(F)c(-c3cc[nH]n3)ccc21` [Compound of formula I, 5-fluoro-1-methyl-3-((5-(4-(oxetan-3-yl)piperazin-1-yl)pyridin-2-yl)amino)-6-(1H-pyrazol-3-yl)quinolin-2(1H)-one] returned an IC50 in series [4] of 170 nM.

(Values after patent US12187710B2, “Salt of Syk inhibitor and crystalline form thereof” (CHIA TAI TIANQING PHARMACEUTICAL GROUP CO., LTD., priority 2018, dated 2025).)
